Measurements reported in patent US20030099632A1, “Method for preparing a purified matrix metalloproteinase” (priority 2001, published 2003).

Target: T1, MMP-13CD (Homo sapiens, UniProt P45452)
T1 construct: expression of MMP-13 catalytic domain (“MMP-13CD”) in E. coli typically produces a pro form of the enzyme; A-S- dipeptide left from the M-A-S- expression leader (mPro-MMP-13CD); removed by autolysis (N, cleaved yes); made in house
Assay: Autolysis of mPro-MMP-13CD / MMP-13CD after addition of a zinc ligand, followed by MALDI-MS
Type: biochemical
Details: added to modified pro form A-S-MMP-13CD
Description: A 1 mL aliquot of the solution obtained in Preparation 3 was thawed and purified by addition of 100 μL of hydroxamic acid to give a solution of purified MMP-13CD, and the solution was stored at 4° C.
Matrix-Assisted Laser Desorption/Ionization Mass Spectrometry (“MALDI”): MALDI mass spectra were acquired on a Bruker Daltonics, Inc (Billerika, Mass.) Reflex-III time-of-flight mass spectrometer operating in linear mode. The instrument has a 3.3-meter flight tube and an adjustable accelerating voltage up to 23 kV in Delayed Extraction mode. Radiation from a Laser Science, Inc. (Newton, Mass.) nitrogen laser (337 nm, 3-nanosecond pulse width) was used to desorb ions from the target. All linear delayed-extraction experiments were performed using an operating voltage of 23.0 kV, an extraction grid voltage of 20.0 kV, a focus voltage of 16.8 kV, and a lens voltage of 9.001 kV. Twenty-five to one hundred-fifty laser shots were averaged for each spectrum with a 5-point Savitsky-Golay smooth applied. […]
Samples of protein were then analyzed by MALDI-MS every day for 5 days. […] The flash-frozen material was stored, then thawed and immediately analyzed. […] The relative peak heights were calculated by dividing the a.i. value for MMP-13CD at m/z 18923 by the a.i. value for the particular impurity. […]

Compound: CC(=O)NO [acetohydroxamic acid]
- effect on autolysis of MMP-13CD: stabilizes the resulting mature MMP-13CD itself against autolysis
